Test results reported in ChEMBL document CHEMBL1201862, “PubChem BioAssay data set” (2004).
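Interpolation was linear, between the two tested concentrations surrounding the appropriate level; five concentrations were tested over 48 hours in 96-well plates. Abbreviation: GI50, concentration required for 50% inhibition of growth.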 The source made the active and inactive calls. Rule as the data show it: active = GI50 up to about 1.1 µM and inactive = higher.

Experiments:
Assay in all cases: growth of human tumour cells (NCI), 48 h
786-0 = tested on: 786-0
CAKI-1 = tested on: CAKI-1
HCC 2998 = tested on: HCC 2998
IGROV-1 = tested on: IGROV-1
M14 = tested on: M14
NCI-H226 = tested on: NCI-H226
NCI-H23 = tested on: NCI-H23
OVCAR-4 = tested on: OVCAR-4
OVCAR-5 = tested on: OVCAR-5
OVCAR-8 = tested on: OVCAR-8
SF-295 = tested on: SF-295
SN12C = tested on: SN12C
SR = tested on: SR
U-251 = tested on: U-251
UACC-257 = tested on: UACC-257
UO-31 = tested on: UO-31
RPMI-8226 = tested on: RPMI-8226

Measured: GI50

Cc1cccc(C(C)C)c1N1C(=O)C(=O)C(c2nc3ccccc3o2)C(=O)C1=O
inactive: 786-0 > 100 µM | CAKI-1 > 100 µM | HCC 2998 95.7 µM | IGROV-1 > 100 µM | M14 > 100 µM | NCI-H226 > 100 µM | NCI-H23 80.2 µM | OVCAR-4 > 100 µM | OVCAR-5 > 100 µM | OVCAR-8 > 100 µM | SF-295 > 100 µM | SN12C > 100 µM | SR 70 µM | U-251 89.3 µM | UACC-257 51.9 µM | UO-31 > 100 µM

Nc1nnc(N)n1N
inactive: 786-0 > 100 µM | CAKI-1 > 100 µM | HCC 2998 > 100 µM | IGROV-1 > 100 µM | M14 > 100 µM | NCI-H226 > 100 µM | NCI-H23 > 100 µM | OVCAR-4 > 100 µM | OVCAR-5 > 100 µM | RPMI-8226 > 100 µM | SF-295 > 100 µM | SR > 100 µM | U-251 > 100 µM | UACC-257 > 100 µM | UO-31 > 100 µM

Cc1nc2ccncc2[nH]1
inactive: 786-0 > 100 µM | CAKI-1 > 100 µM | HCC 2998 > 100 µM | IGROV-1 > 100 µM | M14 > 100 µM | NCI-H226 > 100 µM | NCI-H23 > 100 µM | OVCAR-4 > 100 µM | OVCAR-5 > 100 µM | OVCAR-8 > 100 µM | SF-295 > 100 µM | SN12C > 100 µM | SR > 100 µM | U-251 > 100 µM | UACC-257 > 100 µM | UO-31 > 100 µM

COC(=O)CCC(NC(=S)N/N=C/c1ccccn1)C(=O)OC (stereo unspecified)
inactive: 786-0 > 100 µM | HCC 2998 > 100 µM | IGROV-1 > 100 µM | M14 > 100 µM | NCI-H226 > 100 µM | NCI-H23 > 100 µM | OVCAR-4 > 100 µM | OVCAR-5 63.1 µM | OVCAR-8 > 100 µM | RPMI-8226 > 100 µM | SF-295 > 100 µM | SN12C > 100 µM | SR 59.2 µM | U-251 > 100 µM | UACC-257 > 100 µM | UO-31 > 100 µM

COc1ccc(C2=NN(c3ccccc3)C[N+](c3ccc(OC)cc3)=N2)cc1
inactive: 786-0 49.9 µM | HCC 2998 37.8 µM | IGROV-1 21.3 µM | NCI-H226 15.7 µM | NCI-H23 29.9 µM | OVCAR-4 18.6 µM | OVCAR-5 25 µM | OVCAR-8 85.7 µM | RPMI-8226 23.2 µM | SF-295 59.4 µM | SN12C 54.1 µM | SR 34 µM | U-251 20.4 µM | UACC-257 76.2 µM | UO-31 18.9 µM

CN1N=C2c3ccccc3CC[C@H]2C1c1ccccc1 (stereo partly specified)
inactive: 786-0 63.5 µM | HCC 2998 85.7 µM | IGROV-1 85.5 µM | M14 56.5 µM | NCI-H226 27.9 µM | NCI-H23 16.1 µM | OVCAR-4 23.1 µM | OVCAR-5 > 100 µM | OVCAR-8 41.1 µM | RPMI-8226 28.6 µM | SF-295 35.3 µM | SN12C 42.1 µM | SR > 100 µM | U-251 53.5 µM | UACC-257 22.3 µM | UO-31 19.4 µM

O=c1nc(NC(c2ccccc2)(c2ccccc2)c2ccccc2)ccn1CCO
inactive: 786-0 > 100 µM | HCC 2998 > 100 µM | IGROV-1 > 100 µM | NCI-H226 > 100 µM | NCI-H23 > 100 µM | OVCAR-4 63.2 µM | OVCAR-5 > 100 µM | OVCAR-8 > 100 µM | RPMI-8226 49.8 µM | SF-295 61.1 µM | SN12C 88.7 µM | SR 36.3 µM | U-251 > 100 µM | UACC-257 > 100 µM | UO-31 > 100 µM

COc1ccccc1/C=C1\C(=O)N(C(=O)Cc2ccccc2)N=C1C
inactive: 786-0 > 100 µM | CAKI-1 > 100 µM | HCC 2998 > 100 µM | M14 > 100 µM | NCI-H226 > 100 µM | NCI-H23 > 100 µM | OVCAR-4 > 100 µM | OVCAR-5 > 100 µM | OVCAR-8 > 100 µM | RPMI-8226 > 100 µM | SF-295 > 100 µM | SN12C > 100 µM | SR > 100 µM | U-251 > 100 µM | UACC-257 > 100 µM | UO-31 > 100 µM

CSc1nc2c(nc(C)c(=O)n2C2OCC(OC(C)=O)C(OC(C)=O)C2OC(C)=O)c(=O)[nH]1 (stereo unspecified)
inactive: 786-0 > 100 µM | CAKI-1 88.5 µM | HCC 2998 > 100 µM | IGROV-1 > 100 µM | M14 > 100 µM | NCI-H23 > 100 µM | OVCAR-4 > 100 µM | OVCAR-5 > 100 µM | OVCAR-8 > 100 µM | RPMI-8226 > 100 µM | SF-295 > 100 µM | SN12C > 100 µM | SR > 100 µM | U-251 > 100 µM | UACC-257 > 100 µM | UO-31 > 100 µM
